# Data reported in ChEMBL document CHEMBL1145307, “Design and synthesis of tetracyclic nonpeptidic biaryl nitrile inhibitors of cathepsin K” (Bioorg Med Chem Lett, 2006).
# Assays:
# Cathepsin K = target: T1, Cathepsin K (Homo sapiens, UniProt P43235); assay: Inhibition of human cathepsin K
# T1 sequence (P43235 whole entry): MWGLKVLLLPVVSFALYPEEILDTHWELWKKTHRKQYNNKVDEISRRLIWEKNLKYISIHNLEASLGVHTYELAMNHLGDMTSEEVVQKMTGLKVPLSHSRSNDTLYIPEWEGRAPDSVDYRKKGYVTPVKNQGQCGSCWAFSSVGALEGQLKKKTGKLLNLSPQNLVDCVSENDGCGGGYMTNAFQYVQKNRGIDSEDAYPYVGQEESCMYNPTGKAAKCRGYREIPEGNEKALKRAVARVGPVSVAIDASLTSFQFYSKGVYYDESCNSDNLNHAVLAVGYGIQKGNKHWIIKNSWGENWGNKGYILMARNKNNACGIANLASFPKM
# [1] = Mean residence time in rat at 0.5 mg/kg, iv; type: ADME, organism-based; parameters: dose 0.5 mg/kg, route intravenous; details: in vivo
# [2] = Clearance in rat at 0.5 mg/kg, iv; type: ADME, organism-based; parameters: dose 0.5 mg/kg, route intravenous; details: in vivo
# [3] = Volume of distribution in rat at 0.5 mg/kg, iv; type: ADME, organism-based; parameters: dose 0.5 mg/kg, route intravenous; details: in vivo, read-out: Vss
# Procathepsin L = Procathepsin L (Homo sapiens, UniProt P07711); assay: Inhibition of human cathepsin L
# Chain of Procathepsin L (P07711 whole entry): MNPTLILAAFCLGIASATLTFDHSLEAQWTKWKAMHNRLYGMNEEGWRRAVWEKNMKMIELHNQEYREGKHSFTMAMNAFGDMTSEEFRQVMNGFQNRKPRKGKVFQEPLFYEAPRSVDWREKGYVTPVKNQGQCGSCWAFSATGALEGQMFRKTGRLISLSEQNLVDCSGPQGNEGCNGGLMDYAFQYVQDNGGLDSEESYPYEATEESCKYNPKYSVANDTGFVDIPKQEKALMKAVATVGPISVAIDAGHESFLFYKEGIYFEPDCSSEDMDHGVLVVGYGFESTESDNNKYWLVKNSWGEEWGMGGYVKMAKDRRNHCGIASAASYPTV
# Cathepsin B = Cathepsin B (Homo sapiens, UniProt P07858); assay: Inhibition of human cathepsin B
# Cathepsin S = Cathepsin S (Homo sapiens, UniProt P25774); assay: Inhibition of human cathepsin S
# Chain of Cathepsin S (P25774 whole entry): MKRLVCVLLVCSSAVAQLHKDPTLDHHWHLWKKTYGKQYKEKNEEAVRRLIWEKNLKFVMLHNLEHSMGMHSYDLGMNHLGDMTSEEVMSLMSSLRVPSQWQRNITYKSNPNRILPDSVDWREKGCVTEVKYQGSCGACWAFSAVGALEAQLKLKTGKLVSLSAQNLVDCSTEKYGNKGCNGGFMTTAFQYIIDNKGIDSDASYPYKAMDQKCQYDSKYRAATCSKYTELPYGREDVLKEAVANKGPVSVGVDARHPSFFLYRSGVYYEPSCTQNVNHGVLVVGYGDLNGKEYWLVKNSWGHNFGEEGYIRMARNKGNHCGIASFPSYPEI
# Osteoclast = assay: Effect on degradation of bovine bone by rabbit osteoclast; type: functional, cell-based; details: Oryctolagus cuniculus
# [4] = target: Cathepsin (L and K) (Homo sapiens) (UniProt P43235+P07711); assay: Selectivity for cathepsin L over cathepsin K; type: protein assay
# [5] = target: Cathepsin (B and K) (Homo sapiens) (UniProt P43235+P07858); assay: Selectivity for cathepsin B over cathepsin K; type: protein assay
# [6] = target: Cathepsin (S and K) (Homo sapiens) (UniProt P25774+P43235); assay: Selectivity for cathepsin S over cathepsin K; type: protein assay
# Rattus norvegicus [7] = assay: Cmax in rat at 10 mg/kg, po; type: ADME, organism-based; parameters: dose 10 mg/kg, route oral; details: in vivo
# Rattus norvegicus [8] = assay: Tmax in rat at 10 mg/kg, po; type: ADME, organism-based; parameters: dose 10 mg/kg, route oral; details: in vivo
# Rattus norvegicus [9] = assay: AUC in rat at 10 mg/kg, po; type: ADME, organism-based, Plasma; parameters: dose 10 mg/kg, route oral; details: in vivo
# Rattus norvegicus [10] = assay: Half life in rat at 10 mg/kg, po; type: ADME, organism-based; parameters: dose 10 mg/kg, route oral; details: in vivo
# [11] = Oral bioavailability in rat at 10 mg/kg, po; type: ADME, organism-based; details: in vivo
Compound,Ki (Cathepsin K) [nM],MRT [1] [h],clearance [2] [mL/min/kg],Vd [3] [L/kg],Ki (Procathepsin L) [nM],Ki (Cathepsin B) [nM],Ki (Cathepsin S) [nM],IC50 (Osteoclast) [nM],Selectivity ratio [4],Selectivity ratio [5],Selectivity ratio [6],Cmax (Rattus norvegicus [7]) [nM],Tmax (Rattus norvegicus [8]) [h],AUC (Rattus norvegicus [9]) [µM·min],T1/2 (Rattus norvegicus [10]) [h],bioavailability [11] [%]
CC(C)C[C@@H](C(=O)NCC#N)c1cccc(-c2cccc(-c3csc(N4CCN(C(C)(C)C)CC4)n3)c2)c1,1.3,1.82,60,6.6,360,37000,5600,28,276,28500,4310,,,,,
CC(C)CC(C(=O)NCC#N)c1cccc(-c2cccc(-c3csc(N4CCN(C)CC4)n3)c2)c1 (racemic),1.3,0.9,32,1.7,390,22000,1800,59,300,16900,1380,,,,,
CC(C)CC(C(=O)NCC#N)c1cccc(-c2ccc(-c3csc(N4CCNCC4)n3)cc2)c1 (racemic),3.5,1.77,114,12,2500,12000,9500,12,714,3430,2710,,,,,
CC(C)C[C@@H](C(=O)NCC#N)c1cccc(-c2ccc(N3CCNCC3)cc2)c1,8,2.58,98,14.8,4640,3840,1690,95,580,481,212,,,,,

# The next lines start with the values.
Ki (Cathepsin K) [nM],MRT [1] [h],clearance [2] [mL/min/kg],Vd [3] [L/kg],Ki (Procathepsin L) [nM],Ki (Cathepsin B) [nM],Ki (Cathepsin S) [nM],IC50 (Osteoclast) [nM],Selectivity ratio [4],Selectivity ratio [5],Selectivity ratio [6],Cmax (Rattus norvegicus [7]) [nM],Tmax (Rattus norvegicus [8]) [h],AUC (Rattus norvegicus [9]) [µM·min],T1/2 (Rattus norvegicus [10]) [h],bioavailability [11] [%],Compound
3,,,,540,51000,3600,172,180,17000,1200,,,,,,CC(C)C[C@@H](C(=O)NCC#N)c1cccc(-c2cccc(-c3csc(N4CCC(N(C)C)C4)n3)c2)c1 (some centres undefined)
0.8,2.93,25,4.3,190,18000,5600,349,237,22500,7000,1100,3.33,560,3.9,85,CC(C)CC(C(=O)NCC#N)c1cccc(-c2cccc(-c3csc(N4CCNCC4)n3)c2)c1 (racemic)
4.8,2.33,65,9.1,680,51000,7400,43,141,10600,1540,,,,,,CC(C)C[C@@H](C(=O)NCC#N)c1cccc(-c2cccc(-c3csc(CN4CCNCC4)n3)c2)c1
